The source of these data is BindingDB's records for doi:10.1021/jm00117a017 (Merck Sharp and Dohme Research Laboratories, 1988).

The structures appear in SMILES notation.

Target in the first experiment: not listed separately
As to the kind of experiment: Antibacterial activity against D-alanyl-D-alanine ligase from Streptococcus faecalis (ATCC 8043).
Turning to `CCCCCCCC(C[PH](O)(O)C(C)=N)C(=O)O` (stereo not given), 12.5 µM corresponded to half-maximal inhibition (IC50).

For a further experiment, the target named is D-alanine--D-alanine ligase (Enterococcus faecalis). Described as above.
Regarding `CC(N)P(=O)(O)CC(Cc1ccccc1)C(=O)O` (stereo not given), half-maximal inhibition (IC50) was put at 50 µM.

For the compound `CCCCCCCC(C[PH](O)(O)C(C)=N)C(=O)O` (stereo not given), the IC50 (in general, the concentration that gives 50% inhibition) came out at 200 µM.

`C[C@H](N)P(=O)(O)O` [1-Ammonium-ethanephosphonic acid anion] registered an IC50 of 930 µM.

On to `CC(=N)[PH](O)(O)CC(CC(C)C)C(=O)O` (stereo not given) [2-[(1-Amino-ethyl)-hydroxy-phosphinoylmethyl]-4-methyl-pentanoic acid;hydrate], for which the IC50 worked out at 30 µM.

As for `CC(=N)[PH](O)(O)CC(CCc1ccccc1)C(=O)O` (stereo not given) [2-[(1-Amino-ethyl)-hydroxy-phosphinoylmethyl]-4-phenyl-butyric acid;hydrate], 40 µM corresponded to half-maximal inhibition (IC50).

As to `CC(N)P(=O)(O)CC(CCCc1ccccc1)C(=O)O` (stereo not given) [2-[(1-Amino-ethyl)-hydroxy-phosphinoylmethyl]-5-phenyl-pentanoic acid;hydrate], the IC50 turned out to be 50 µM.

The compound `CCC(C[PH](O)(O)C(C)=N)C(=O)O` (stereo not given) [2-[(1-Amino-ethyl)-hydroxy-phosphinoylmethyl]-butyric acid;hydrate] registered an IC50 of 45 µM.

For the compound `CCCC(CP(=O)(O)C(C)N)C(=O)O` (stereo not given) [2-[(1-Amino-ethyl)-hydroxy-phosphinoylmethyl]-pentanoic acid;hydrate], half-maximal inhibition (IC50) was put at 20 µM.

Compound `CCCCC(C[PH](O)(O)C(=N)CC)C(=O)O` (stereo not given) [2-[(1-Amino-propyl)-hydroxy-phosphinoylmethyl]-hexanoic acid;hydrate] registered an IC50 of 155 µM.
